# Target: GLP-1 Receptor (Homo sapiens (Human), UniProt P43220)
# Experiment: GLP-1R agonist cAMP stimulation assay (HEK293/GLP1R/CRE-LUC cells)
# Type: cell-based
# Conditions: 30 min incubation, read-out: GLP1R cAMP Stimulation DR: EC50
# Method: Activation of GLP-1 receptor is known to stimulate cyclic AMP (cAMP) production in cells which indicates primary coupling to the Gαs subunit of the G protein heterotrimeric complex.
# To optimize functional activity directed toward Gαs coupling, a HEK293/CRELuc cell line developed by HDB stably expressing the GLP-1 Receptor was used. 200× concentration of compound working solutions were prepared (Agilent Technologies Bravo) with 1/2 log serial dilution in 384-well Echo LDV plate (Labcyte, Cat #LP-0200). 50 nL/well 200× concentration of compound working solutions were moved to 384-well white low volume plate (Greiner, Cat #784075) using Labcyte ECHO550. 1×10^5 cells/mL HEK293/GLP1R/CRE-LUC (HD Biosciences) cell suspensions prepared with assay buffer [DPBS containing 0.5 mM IBMX (Sigma,Cat #I5879) and 0.1% BSA (GENVIEW, Cat #FA016-100 g)], 10 uL cell suspensions were added to each well of previous generated assay plate which already contains 50 nl compound at 200× concentration using ThermoFisher Multidrop Combi (1000cells/well). Seal the plate and incubate at 37° C. with 5% CO2 for 30 min.
# After incubation the CAMP assay signal was generated using cAMP dynamic 2 Kit (Cisbio). 5 μL cAMP-d2 working solution was added to each well, followed with 5 μL Anti-cAMP antibody-cryptate working solution added to each well using ThermoFisher Multidrop Combi. Incubate at room temperature for 1 hour protected from light. Read the fluorescence at 665 and 615 nm with Reader PerkinElmer En Vision.
# Chain of GLP-1 Receptor (P43220 24-463): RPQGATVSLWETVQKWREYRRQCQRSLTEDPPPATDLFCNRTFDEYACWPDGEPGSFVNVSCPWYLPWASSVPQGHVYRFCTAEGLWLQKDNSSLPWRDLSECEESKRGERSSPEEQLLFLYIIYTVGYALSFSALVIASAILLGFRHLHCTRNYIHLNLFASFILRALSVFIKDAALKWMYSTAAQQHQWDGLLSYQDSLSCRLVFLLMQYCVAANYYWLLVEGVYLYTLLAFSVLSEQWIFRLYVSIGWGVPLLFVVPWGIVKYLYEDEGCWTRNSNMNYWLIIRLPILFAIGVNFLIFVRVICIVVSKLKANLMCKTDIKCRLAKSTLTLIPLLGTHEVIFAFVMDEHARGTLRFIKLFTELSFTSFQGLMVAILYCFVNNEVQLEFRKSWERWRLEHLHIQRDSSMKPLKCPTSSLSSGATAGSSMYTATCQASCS
row,SMILES,EC50
1,"O=C(O)c1ccc2nc(CN3CCC(c4cccc5c4OCC(c4ccc(Cl)cc4F)O5)CC3)n(C[C@@H]3CCO3)c2n1 (mixture of isomers) [Compound 104a, 2-((4-(2-(4-Chloro-2-fluorophenyl)-2,3-dihydrobenzo[b][1,4]dioxin-5-yl)piperidin-1-yl)methyl)-3-((S)-oxetan-2-ylmethyl)-3H-imidazo[4,5-b]pyridine-5-carboxylic acid]",0.2 to 20 nM
2,"O=C(O)c1ccc2nc(CN3CCC(c4cccc5c4OC(c4ccc(Cl)cc4F)CO5)CC3)n(C[C@@H]3CCO3)c2n1 (single isomer, unassigned) [Compound 130b]",≤ 0.2 nM
3,"O=C(O)c1ccc2nc(CN3CCC(c4cccc5c4OC(c4ccc(Cl)cc4F)CO5)CC3)n(C[C@@H]3CCO3)c2n1 (single isomer, unassigned) [Compound 130c]",0.2 to 20 nM
4,"O=C(O)c1ccc2nc(Cc3ccc(-c4cccc5c4OCC(c4ccc(Cl)cc4F)O5)cc3)n(C[C@@H]3CCO3)c2n1 (stereo in doubt) [Compound 107a, 2-[[4-[2-(4-chloro-2-fluoro-phenyl)-2,3-dihydro-1,4-benzodioxin-5-yl]phenyl]methyl]-3-(oxetan-2-ylmethyl)imidazo[4,5-b]pyridine-5-carboxylic acid]",20 to 200 nM
5,"O=C(O)c1ccc2nc(CN3CCC(c4cccc5c4OCC(c4ccccc4)O5)CC3)n(C[C@@H]3CCO3)c2n1 (stereo partly drawn) [Compound 101a, 3-((S)-oxetan-2-ylmethyl)-2-((4-(2-phenyl-2,3-dihydrobenzo[b][1,4]dioxin-5-yl)piperidin-1-yl)methyl)-3H-imidazo[4,5-b]pyridine-5-carboxylic acid]",0.2 to 20 nM
6,"O=C(O)c1ccc2nc(CN3CCC(c4cccc5c4OCC(c4ccccc4)C5)CC3)n(C[C@@H]3CCO3)c2n1 (stereo partly drawn) [Compound 103a, 3-(((S)-oxetan-2-yl)methyl)-2-((4-(3-phenylchroman-8-yl)piperidin-1-yl)methyl)-3Himidazo[4,5-b]pyridine-5-carboxylic acid]",0.2 to 20 nM
7,"O=C(O)c1ccc2nc(CN3CCC(c4cccc5c4OC[C@@H](c4ccc(Cl)cc4F)O5)CC3)n(C[C@@H]3CCO3)c2n1 [Compound 104b, 2-((4-((R)-2-(4-chloro-2-fluorophenyl)-2,3-dihydrobenzo[b][1,4]dioxin-5-yl)piperidin-1-yl)methyl)-3-(((S)-oxetan-2-yl)methyl)-3H-imidazo[4,5-b]pyridine-5-carboxylic acid]",0.2 to 20 nM
8,"O=C(O)c1ccc2nc(CN3CCC(c4cccc5c4OC[C@H](c4ccc(Cl)cc4F)O5)CC3)n(C[C@@H]3CCO3)c2n1 [Compound 104c, 2-((4-((S)-2-(4-chloro-2-fluorophenyl)-2,3-dihydrobenzo[b][1,4]dioxin-5-yl)piperidin-1-yl)methyl)-3-(((S)-oxetan-2-yl)methyl)-3H-imidazo[4,5-b]pyridine-5-carboxylic acid]",20 to 200 nM
9,"O=C(O)c1ccc2nc(CN3CCC(c4cccc5c4CCC(c4ccc(Cl)cc4F)O5)CC3)n(C[C@@H]3CCO3)c2n1 (stereo partly drawn) [Compound 105a, 2-((4-(2-(4-chloro-2-fluorophenyl)chroman-5-yl)piperidin-1-yl)methyl)-3-(((S)oxetan-2-yl)methyl)-3H-imidazo[4,5-b]pyridine-5-carboxylic acid]",> 200 nM
10,"O=C(O)c1ccc2nc(CN3CCC(c4cccc5c4OCC(c4ccc(Cl)cc4F)C5)CC3)n(C[C@@H]3CCO3)c2n1 (stereo partly drawn) [Compound 106a, 2-((4-(3-(4-chloro-2-fluorophenyl)chroman-8-yl)piperidin-1-yl)methyl)-3-(((S)-oxetan-2-yl)methyl)-3H-imidazo[4,5-b]pyridine-5-carboxylic acid]",0.2 to 20 nM
11,"O=C(O)c1ccc2nc(CN3CCN(c4cccc5c4OCC(c4ccc(Cl)cc4F)O5)CC3)n(C[C@@H]3CCO3)c2n1 (stereo partly drawn) [Compound 108a, 2-((4-(2-(4-chloro-2-fluorophenyl)-2,3-dihydrobenzo[b][1,4]dioxin-5-yl)piperazin-1-yl)methyl)-3-((S)-oxetan-2-ylmethyl)-3H-imidazo[4,5-b]pyridine-5-carboxylic acid]",0.2 to 20 nM
12,"O=C(O)c1ccc2nc(CN3CCC(c4cccc5c4OCC(c4ccccc4F)O5)CC3)n(C[C@@H]3CCO3)c2n1 (stereo partly drawn) [Compound 109a, 2-((4-(2-(2-fluorophenyl)-2,3-dihydrobenzo[b][1,4]dioxin-5-yl)piperidin-1-yl)methyl)-3-(((S)-oxetan-2-yl)methyl)-3H-imidazo[4,5-b]pyridine-5-carboxylic acid]",20 to 200 nM
13,"O=C(O)c1ccc2nc(CN3CCC(c4cccc5c4OCC(c4ccc(Cl)cc4)O5)CC3)n(C[C@@H]3CCO3)c2n1 (stereo partly drawn) [Compound 111a, 2-((4-(2-(4-chlorophenyl)-2,3-dihydrobenzo[b][1,4]dioxin-5-yl)piperidin-1-yl)methyl)-3-(((S)-oxetan-2-yl)methyl)-3H-imidazo[4,5-b]pyridine-5-carboxylic acid]",≤ 0.2 nM
14,"O=C(O)c1ccc2nc(CN3CCC(c4cccc5c4OC[C@@H](c4ccc(Cl)cc4)O5)CC3)n(C[C@@H]3CCO3)c2n1 [Compound 111b, 2-((4-((R)-2-(4-chlorophenyl)-2,3-dihydrobenzo[b][1,4]dioxin-5-yl)piperidin-1-yl)methyl)-3-((S)-oxetan-2-ylmethyl)-3H-imidazo[4,5-b]pyridine-5-carboxylic acid]",≤ 0.2 nM
15,"O=C(O)c1ccc2nc(CN3CCC(c4cccc5c4OC[C@H](c4ccc(Cl)cc4)O5)CC3)n(C[C@@H]3CCO3)c2n1 [Compound 111c, 2-((4-((S)-2-(4-chlorophenyl)-2,3-dihydrobenzo[b][1,4]dioxin-5-yl)piperidin-1-yl)methyl)-3-(((S)-oxetan-2-yl)methyl)-3H-imidazo[4,5-b]pyridine-5-carboxylic acid]",20 to 200 nM
16,"O=C(O)c1ccc2nc(CN3CCC(c4cccc5c4OCC(c4cccc(Cl)c4)O5)CC3)n(C[C@@H]3CCO3)c2n1 (stereo partly drawn) [Compound 112a, 2-((4-(2-(3-chlorophenyl)-2,3-dihydrobenzo[b][1,4]dioxin-5-yl)piperidin-1-yl)methyl)-3-(((S)-oxetan-2-yl)methyl)-3H-imidazo[4,5-b]pyridine-5-carboxylic acid]",0.2 to 20 nM
17,"O=C(O)c1ccc2nc(CN3CCC(c4cccc5c4OCC(c4ccc(Cl)c(F)c4)O5)CC3)n(C[C@@H]3CCO3)c2n1 (stereo partly drawn) [Compound 113a, 2-((4-(2-(4-chloro-3-fluorophenyl)-2,3-dihydrobenzo[b][1,4]dioxin-5-yl)piperidin-1-yl)methyl)-3-(((S)-oxetan-2-yl)methyl)-3H-imidazo[4,5-b]pyridine-5-carboxylic acid]",0.2 to 20 nM
18,"C[C@H]1CN(c2cccc3c2OCC(c2ccc(Cl)cc2)O3)CCN1Cc1nc2ccc(C(=O)O)nc2n1C[C@@H]1CCO1 (stereo partly drawn) [Compound 114a, 2-(((2S)-4-(2-(4-chlorophenyl)-2,3-dihydrobenzo[b][1,4]dioxin-5-yl)-2-methylpiperazin-1-yl)methyl)-3-(((S)-oxetan-2-yl)methyl)-3H-imidazo[4,5-b]pyridine-5-carboxylic acid]",0.2 to 20 nM
19,"O=C(O)c1ccc2nc(CN3CCC(c4cccc5c4OCC(c4ccc(Cl)cc4)O5)CC3)n(C[C@@H]3CCO3)c2c1 (stereo partly drawn) [Compound 115a, 2-((4-(2-(4-chlorophenyl)-2,3-dihydrobenzo[b][1,4]dioxin-5-yl)piperidin-1-yl)methyl)-1-(((S)-oxetan-2-yl)methyl)-1H-benzo[d]imidazole-6-carboxylic acid]",≤ 0.2 nM
20,"Cc1ccc(C2COc3c(cccc3C3CCN(Cc4nc5ccc(C(=O)O)nc5n4C[C@@H]4CCO4)CC3)O2)cc1 (stereo partly drawn) [Compound 116a, 3-(((S)-oxetan-2-yl)methyl)-2-((4-(2-(p-tolyl)-2,3-dihydrobenzo[b][1,4]dioxin-5-yl)piperidin-1-yl)methyl)-3H-imidazo[4,5-b]pyridine-5-carboxylic acid]",≤ 0.2 nM
21,"O=C(O)c1ccc2nc(CN3CCC(c4cccc5c4OCC(c4ccc(F)cc4)O5)CC3)n(C[C@@H]3CCO3)c2n1 (stereo partly drawn) [Compound 117a, 2-((4-(2-(4-fluorophenyl)-2,3-dihydrobenzo[b][1,4]dioxin-5-yl)piperidin-1-yl)methyl)-3-(((S)-oxetan-2-yl)methyl)-3H-imidazo[4,5-b]pyridine-5-carboxylic acid]",0.2 to 20 nM
22,"N#Cc1ccc(C2COc3c(cccc3C3CCN(Cc4nc5ccc(C(=O)O)nc5n4C[C@@H]4CCO4)CC3)O2)cc1 (stereo partly drawn) [Compound 118a, 2-((4-(2-(4-cyanophenyl)-2,3-dihydrobenzo[b][1,4]dioxin-5-yl)piperidin-1-yl)methyl)-3-(((S)-oxetan-2-yl)methyl)-3H-imidazo[4,5-b]pyridine-5-carboxylic acid]",≤ 0.2 nM
23,"N#Cc1ccc([C@@H]2COc3c(cccc3C3CCN(Cc4nc5ccc(C(=O)O)nc5n4C[C@@H]4CCO4)CC3)O2)cc1 [Compound 118b, 2-((4-((R)-2-(4-cyanophenyl)-2,3-dihydrobenzo[b][1,4]dioxin-5-yl)piperidin-1-yl)methyl)-3-(((S)-oxetan-2-yl)methyl)-3H-imidazo[4,5-b]pyridine-5-carboxylic acid]",≤ 0.2 nM
24,"N#Cc1ccc([C@H]2COc3c(cccc3C3CCN(Cc4nc5ccc(C(=O)O)nc5n4C[C@@H]4CCO4)CC3)O2)cc1 [Compound 118c, 2-((4-((S)-2-(4-cyanophenyl)-2,3-dihydrobenzo[b][1,4]dioxin-5-yl)piperidin-1-yl)methyl)-3-(((S)-oxetan-2-yl)methyl)-3H-imidazo[4,5-b]pyridine-5-carboxylic acid]",20 to 200 nM

# Reference: patent publication US20250214999A1, “HETEROCYCLIC GLP-1 AGONISTS” (Gasherbrum Bio, Inc., priority 2020, published 2025)
